Like-named read-outs stand apart in the source and are kept apart here. Marks after values point to notes of the source that are not given here.
Experiments:
CYP3A4 [1] = biological target: T1, CYP3A4 (Homo sapiens, UniProt P08684)
[2] = healthy volunteers, cited from earlier work; for increase in AUCtau with concomitant CBD / increase in C max with concomitant CBD: steady-state ASD
[3] = cited from earlier work; for decrease in AUCtau with concomitant CBD / decrease in C max with concomitant CBD: patients with epilepsy on stable VPA
[4] = cited from earlier work
CYP3A4 [5] = biological target: T1, CYP3A4; settings: result in words; cited from earlier work
CYP2C19 = CYP2C19 (Homo sapiens, UniProt P33261); settings: result in words; cited from earlier work
Sequence of CYP2C19 (P33261 whole entry): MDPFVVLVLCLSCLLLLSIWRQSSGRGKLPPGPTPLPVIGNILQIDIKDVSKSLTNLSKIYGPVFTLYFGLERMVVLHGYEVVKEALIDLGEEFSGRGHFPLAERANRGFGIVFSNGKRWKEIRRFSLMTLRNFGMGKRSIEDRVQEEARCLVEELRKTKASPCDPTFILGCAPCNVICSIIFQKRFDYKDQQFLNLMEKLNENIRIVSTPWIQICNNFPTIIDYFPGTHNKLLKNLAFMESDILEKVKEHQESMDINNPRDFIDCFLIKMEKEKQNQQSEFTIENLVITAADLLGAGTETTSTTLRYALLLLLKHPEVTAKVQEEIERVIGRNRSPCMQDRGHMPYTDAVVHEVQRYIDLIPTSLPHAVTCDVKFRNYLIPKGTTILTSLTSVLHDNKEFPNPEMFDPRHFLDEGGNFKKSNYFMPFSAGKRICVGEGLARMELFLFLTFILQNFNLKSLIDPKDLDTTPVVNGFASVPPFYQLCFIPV

[6] = trial 17074; after CBD alone, during RIF treatment, or after CBD and RIF; of 16
[7] = patients with epilepsy on stable CLB; result in words; cited from earlier work
CYP3A4 [8] = biological target: T1, CYP3A4; assay: clinical; settings: in vivo

T1 sequence (P08684 whole entry): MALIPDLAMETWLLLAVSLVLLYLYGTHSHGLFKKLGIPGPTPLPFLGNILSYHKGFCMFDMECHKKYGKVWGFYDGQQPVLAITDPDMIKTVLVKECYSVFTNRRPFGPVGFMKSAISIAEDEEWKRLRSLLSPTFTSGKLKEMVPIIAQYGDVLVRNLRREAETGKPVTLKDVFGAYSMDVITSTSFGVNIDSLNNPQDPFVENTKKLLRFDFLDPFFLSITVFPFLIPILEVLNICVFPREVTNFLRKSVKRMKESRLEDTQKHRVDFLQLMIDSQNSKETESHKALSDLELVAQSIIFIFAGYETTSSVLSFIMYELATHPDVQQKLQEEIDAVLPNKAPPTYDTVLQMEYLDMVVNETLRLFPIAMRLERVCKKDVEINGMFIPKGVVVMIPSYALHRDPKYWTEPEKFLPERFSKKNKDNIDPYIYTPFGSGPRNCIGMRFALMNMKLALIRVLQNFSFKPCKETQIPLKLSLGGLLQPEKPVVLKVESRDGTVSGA

For OCc1ncc2n1-c1ccc(Cl)cc1C(c1ccccc1F)=NC2 [1′‐OH‐MDZ, 1′‐hydroxymidazolam], which t max (CYP3A4 [1]; MDZ + CBD (steady-state CBD 750 mg BID), median (min‐max)) is on record?
Its t max is 3.00 (0.50‐5.02) ^e h.

What about the “t ½” value (CYP3A4 [1]; MDZ + placebo, MDZ 2.5 mg single dose, arithmetic mean (CV%)) of the same molecule?
Its value is 6.11 (39.0) h.

What about the t max (CYP3A4 [1]; MDZ + placebo, median (min‐max)) of the same molecule?
Its t max is 0.50 (0.48‐1.55) ^d h.

What about the “increase in AUCtau with concomitant CBD” value (CYP3A4 [1]; steady-state CBD) of the same molecule?
The value was 68%.

And the “increase in C max with concomitant CBD” value (CYP3A4 [1]; steady-state CBD)?
Its value is 12%.

And the “increase in t ½ with concomitant CBD” value (CYP3A4 [1]; steady-state CBD)?
Its value is 35%.

And the “delay to t max, median of differences” value (CYP3A4 [1]; with concomitant CBD, 90% CI = 1.00‐2.52)?
The value was 2.25 h.

For CC(C)(C)C(O)/C=C/c1ccc2c(c1)OCO2 (stereo not shown) [STP, stiripentol], which “increase in AUCtau with concomitant CBD” value [2] is on record?
The value was 55%.

What about the “increase in C max with concomitant CBD” value [2] of the same molecule?
The value was 28%.

And the “increase in AUCtau with concomitant CBD” value ([3]; patients with epilepsy)?
Its value is 30%.

And the “increase in C max with concomitant CBD” value ([3]; patients with epilepsy)?
Its value is 17%.

What about the “Plasma protein binding (PPB)” value [4] of the same molecule?
The value was 96.1%.

And the “inhibition of CYP3A4” value (CYP3A4 [5])?
Its value is “potent inhibitor”.

What about the “inhibition of CYP2C19” value (CYP2C19) of the same molecule?
The value was “potent inhibitor”.

With CO[C@H]1/C=C/O[C@@]2(C)Oc3c(C)c(O)c4c(O)c(c(/C=N/N5CCN(C)CC5)c(O)c4c3C2=O)NC(=O)/C(C)=C\C=C\[C@H](C)[C@H](O)[C@@H](C)[C@@H](O)[C@@H](C)[C@H](OC(C)=O)[C@@H]1C [RIF, rifampicin] as the molecule, how does the “healthy volunteers reporting AEs” value [6] read?
Its value is 81%.

For C=CCC(CCC)C(=O)O (stereo not shown) [4‐ene‐VPA, 2‐propyl‐4‐pentenoic acid], which “decrease in AUCtau with concomitant CBD” value [3] is on record?
Its value is 30%.

What about the “decrease in C max with concomitant CBD” value [3] of the same molecule?
Its value is 23%.

What does the source list for CCCC(CCC)C(=O)O [VPA, valproate]?
effect of concomitant CBD on exposure ([2]; result in words): no effect; decrease in AUCtau with concomitant CBD [3]: 17%; decrease in C max with concomitant CBD [3]: 13%; PPB when VPA and CBD are combined in vitro ([4]; result in words): not affected

What does the source list for CN1C(=O)CC(=O)N(c2ccccc2)c2cc(Cl)ccc21 [CLB, clobazam]?
increase in AUCtau with concomitant CBD [2]: 21%; increase in C max with concomitant CBD [2]: 20%; effect of concomitant CBD on exposure [7]: no effect

For Cc1ncc2n1-c1ccc(Cl)cc1C(c1ccccc1F)=NC2 [MDZ, midazolam], which t max (CYP3A4 [1]; human, in vivo) is on record?
Its t max is 1.00 (0.5‐3.00) h.

And the “t ½” value (CYP3A4 [1]; human, in vivo)?
The value was 4.53 (14.5) h.

And the t max (CYP3A4 [8]; t max)?
Its t max is 30 min.

And the half-life (CYP3A4 [8]; t ½)?
Its half-life is 299 min.
